PMC8999625, “Antiviral Effects of ABMA and DABMA against Influenza Virus In Vitro and In Vivo via Regulating the Endolysosomal Pathway and Autophagy” (International Journal of Molecular Sciences, 2022)
Entries after “also recorded” stand apart in the source; their conditions may differ. Counter-ions that a name gives are not always drawn. Like-named read-outs stand apart in the source and are kept apart here.

Experiments:
[1] = test system: A/NY/61/LV16A (H1N1); experiment: CPE inhibition assay; type: cell-based
[2] = test system: A/17/HK/2014/8296 (H3N2); experiment: CPE inhibition assay; type: cell-based
[3] = test system: A/NY/61/LV16A (H1N1); experiment: Viral nucleoprotein (NP) by Western blotting; type: cell-based, influenza virus
[4] = test system: A/NY/61/LV16A (H1N1); experiment: H1N1 NP mRNA by qRT-PCR in A549 cells treated with autophagy inhibitors; type: cell-based, influenza virus
[5] = test system: A/Maonan/SWL1536/2019 (H1N1); experiment: CPE inhibition assay; type: cell-based
[6] = test system: B/Washington/02/2019; experiment: CPE inhibition assay; type: cell-based
[7] = test system: influenza virus strains (H1N1, H3N2, influenza B virus); experiment: CPE inhibition assay, all influenza virus strains tested; type: cell-based; settings: unidentified influenza virus; range over five strains, MDCK cells; read-out: EC50 values ranging, all influenza virus strains tested
[8] = test system: A/NY/61/LV16A (H1N1); experiment: H1N1 RNA replication by qRT-PCR in MDCK cells; type: cell-based, influenza virus
[9] = test system: A/NY/61/LV16A (H1N1); type: in vivo, BALB/c mice; settings: for survival rate: 5 mg/kg i.p. once daily for 6 days, H1N1 i.n., 14 days; for H1N1 virus titers in the lungs compared to placebo / lung histopathology changes (H&E) / lung index compared to placebo / lung viral load compared to placebo: mouse, in vivo, ip
[10] = test system: A/NY/61/LV16A (H1N1); type: cell-based; settings: 15 μM, A549 cells, MOI = 1, 16 hpi, vs virus control
[11] = test system: A/NY/61/LV16A (H1N1); experiment: Binding assay; type: cell-based, influenza virus
[12] = test system: A/NY/61/LV16A (H1N1); experiment: Entry assay; type: cell-based, influenza virus
[13] = test system: Rab7; type: cell-based; settings: 15 µM, A549 cells, 3 hpi
[14] = test system: LC3B-II and p62; experiment: Autophagy markers by Western blotting in A549 cells; type: cell-based; settings: dose- and time-dependent
[15] = test system: A/NY/61/LV16A (H1N1); experiment: Time of addition assay; type: cell-based, influenza virus
[16] = uninfected mice, 5 mg/kg i.p.
[17] = in vitro; settings: dog
[18] = in vitro; settings: human
[19] = test system: Corynebacterium diphtheriae; design: method as in PMID 29138439; settings: cited from earlier work
[20] = test system: Ebola virus; settings: cited from earlier work
[21] = test system: HSV-2; settings: cited from earlier work
[22] = Cytotoxicity, CellTiter-Glo cell viability; settings: dog, uninfected MDCK cells
[23] = Influenza A virus, H1N1, MDCK; read-out: EC50 ± SD A/NY/61/LV16A (H1N1)
[24] = Influenza A virus, H3N2, MDCK; read-out: EC50 ± SD A/17/HK/2014/8296 (H3N2)
[25] = Influenza A virus, H1N1; MDCK cells; read-out: EC90 (approximately)
[26] = Influenza A virus, H1N1, MDCK; read-out: EC50 ± SD A/Maonan/SWL1536/2019 (H1N1)
[27] = Influenza B virus; B/M2; infected MDCK cells, MOI = 0.01, 48 hpi; read-out: EC50 ± SD B/Washington/02/2019

`CCN(CC)CCCC(C)Nc1ccnc2cc(Cl)ccc12` (stereo not shown) [Chloroquine, reference compound] gave an EC50 [1, 23] of 17.1 ± 2.27 µM and an EC50 [2, 24] of 12 ± 1.26 µM.
With `CO/C1=C\C(C)=C\[C@@H](C)[C@@H](O)[C@@H](C)C/C(C)=C/C=C/[C@H](OC)[C@@H]([C@@H](C)[C@@H](O)[C@H](C)[C@@]2(O)C[C@@H](O)[C@H](C)[C@@H](C(C)C)O2)OC1=O` [Baf A1, Bafilomycin A1, reference compound] the “NP expression levels (Western blot)” value [3] was “decreased” and the “H1N1 RNA content” value [4] was “significantly decreased”.
`COc1ccc(Br)cc1CNC12CC3CC(CC(C3)C1)C2` [ABMA, 1-adamantyl (5-bromo-2-methoxybenzyl) amine] showed an EC50 [1, 23] of 3.25 ± 0.17 µM, an EC90 [1, 25] of roughly 15 µM and an EC50 [2, 24] of 5.58 ± 0.38 µM. For the same compound, the EC50 [5, 26] was 4.57 ± 0.33 µM, the EC50 [6, 27] was 7.36 ± 0.65 µM and the EC50 [7] was 2.83 to 7.36 µM. The “inhibition of H1N1 RNA replication (qRT-PCR)” value [8] was 81.77%, the survival rate [9] was 67% and the “H1N1 virus titers in the lungs compared to placebo” value [9] was “lower titers”. For the same compound, the “lung histopathology changes (H&E)” value [9] was “significant reduction”, the “lung index compared to placebo” value [9] was “significantly reduced” and the “lung viral load compared to placebo” value [9] was “significantly reduced”. The “NP expression levels (Western blot)” value [3] was “reduced; also recorded: decreased”, the NP fluorescence signal [10] was “significantly decreased” and the “binding of the virus to cells” value [11] was “do not affect”. For the same compound, the “entry stage of H1N1” value [12] was “significantly inhibited”, the Rab7 protein fluorescence [13] was “largely increased” and the LC3B-II level [14] was “increased”. The p62 level [14] was “increased”, the “H1N1 RNA content, time of addition” value [15] was “significantly reduced” and the “changes in animal behavior, lethargy and body weight” value [16] was “No remarkable changes”. It also gave a CC50 at 72 h [17] of 72.3 ± 1.09 µM and a CC50 [18] of 83.8 ± 1.92 µM.
For `CC(N)C12CC3CC(CC(C3)C1)C2` (stereo not shown) [1-(1-adamantyl) ethylamine], the “activity against Corynebacterium diphtheriae” value [19] is listed as “inactive”, the “activity against Ebola virus” value [20] is listed as “inactive” and the “activity against HSV-2 infection” value [21] is listed as “inactive”.
In the case of `CC12CC3CC(C)(C1)CC(N)(C3)C2` [memantine], the “activity against Corynebacterium diphtheriae” value [19] is given as “inactive”, the “activity against Ebola virus” value [20] is given as “inactive” and the “activity against HSV-2 infection” value [21] is given as “inactive”.
`COc1ccc(Br)cc1CNC12CC3CC(C)(CC(C)(C3)C1)C2` [DABMA, 1,3-dimethyl-1-adamantyl (5-bromo-2-methoxybenzyl) amine] showed an EC50 [1, 23] of 1.82 ± 0.11 µM, an EC90 [1, 25] of roughly 15 µM and an EC50 [2, 24] of 6.73 ± 0.73 µM. It also gave an EC50 [5, 26] of 2.69 ± 0.26 µM, an EC50 [6, 27] of 6.62 ± 0.46 µM and an EC50 [7] of 1.82 to 6.73 µM. The “inhibition of H1N1 RNA replication (qRT-PCR)” value [8] was 86.51%, the survival rate [9] was 67% and the “H1N1 virus titers in the lungs compared to placebo” value [9] was “lower titers”. The “lung histopathology changes (H&E)” value [9] was “significant reduction”, the “lung index compared to placebo” value [9] was “significantly reduced” and the “lung viral load compared to placebo” value [9] was “significantly reduced”. The “NP expression levels (Western blot)” value [3] was “reduced”, the NP fluorescence signal [10] was “significantly decreased” and the “binding of the virus to cells” value [11] was “do not affect”. For the same compound, the “entry stage of H1N1” value [12] was “significantly inhibited”, the “H1N1 RNA content, time of addition” value [15] was “significantly reduced” and the “changes in animal behavior, lethargy and body weight” value [16] was “No remarkable changes”. For the same compound, the CC50 at 72 h [17] was 42.7 ± 1.46 µM and the CC50 [18] was 47.4 ± 1.68 µM.
`CCOC(=O)C1=C[C@@H](OC(CC)CC)[C@H](NC(C)=O)[C@@H](N)C1` [Oseltamivir, Oseltamivir phosphate] showed an EC50 [1, 23] of 7.97 ± 0.85 µM, an EC50 [2, 24] of 7.3 ± 0.79 µM and an EC50 [5, 26] of 2.95 ± 0.21 µM. For the same compound, the EC50 ([6]; Influenza B virus, MDCK; read-out: EC50 ± SD B/Washington/02/2019) was 8.53 ± 1.64 µM and the CC50 at 72 h [17] was 1890 ± 71.8 µM.
In the case of `Cn1cnc(N)c2ncnc1-2` [3-MA, 3-methyladenine], the “H1N1 RNA content” value [4] is reported as “significantly decreased”.
With `NC12CC3CC(CC(C3)C1)C2` [Amantadine, Amantadine hydrochloride] the EC50 [1, 23] was 9.97 ± 1.34 µM, the EC50 [2, 24] was 8.27 ± 0.66 µM and the EC50 [5, 26] was 20.2 ± 1.36 µM. For the same compound, the “antiviral activity against B/Washington/02/2019 (IBV)” value [6] was “did not show antiviral activity; also recorded: no significant protection”, the EC50 ([6]; Influenza B virus, MDCK, read-out: EC50 ± SD B/Washington/02/2019) was greater than 100 µM and the “activity against Corynebacterium diphtheriae” value [19] was “inactive”. For the same compound, the “activity against Ebola virus” value [20] was “inactive”, the “activity against HSV-2 infection” value [21] was “inactive” and the CC50 [17] was 477 ± 39.5 µM.
`NC(=O)c1ncn([C@@H]2O[C@H](CO)[C@@H](O)[C@H]2O)n1` [Ribavirin, ribavirin] showed an EC50 ([1]; Influenza A virus, H1N1, MDCK, read-out: EC50 ± SD A/NY/61/LV16A (H1N1)) of 1.61 ± 0.62 µM, an EC50 ([2]; Influenza A virus, H3N2, MDCK, read-out: EC50 ± SD A/17/HK/2014/8296 (H3N2)) of 0.13 ± 0.04 µM and an EC50 ([5]; Influenza A virus, H1N1, MDCK, read-out: EC50 ± SD A/Maonan/SWL1536/2019 (H1N1)) of 3.2 ± 0.34 µM. For the same compound, the EC50 [6, 27] was 3.02 ± 0.39 µM and the CC50 at 72 h [22] was 5480 ± 255 µM.
